{
  "source": "patent US8598129B2",
  "about": "“Topical application of ivermectin for the treatment of dermatological conditions/afflictions” (Galderma S.A., priority 2003, dated 2013)",
  "experiment": "solubility of ivermectin in various solvents",
  "assay_type": "physicochemical",
  "from_the_text": "The table below illustrates the solubility of ivermectin in various solvents: […]",
  "data": [
    {"substance": "Ivermectin", "values": [
      {"measurement": "Maximum % solubility of ivermectin in the solvent concerned (weight/weight)", "setting": "solvent: N-methyl-2-pyrrolidone", "value": "58.13 % (weight/weight)"},
      {"measurement": "Maximum % solubility of ivermectin in the solvent concerned (weight/weight)", "setting": "solvent: Propylene glycol", "value": "21.83 % (weight/weight)"},
      {"measurement": "Maximum % solubility of ivermectin in the solvent concerned (weight/weight)", "setting": "solvent: Propylene glycol/oleyl alcohol (4 parts/2 parts)", "value": "27.31 % (weight/weight)"},
      {"measurement": "Maximum % solubility of ivermectin in the solvent concerned (weight/weight)", "setting": "solvent: Triacetin", "value": "7.22 % (weight/weight)"}
    ]}
  ]
}
